From patent US6750199B2, “Antimicrobial sulfonamide derivatives of lipopeptide antibiotics” (Micrologix Biotech Inc., priority 2000, dated 2004)
Values after ≈ are worked out from the molar mass of the structure shown. Like-named read-outs stand apart in the source and are kept apart here. Starred links: 1 amine or outer side, 2 acyl side, 3 side chain; linkers in the order of their positions; H or OH if unused. Positions of bridges follow the written chain, without caps; N, C: chain ends. Non-standard residues stand in square brackets, D forms with d. Residues, ends and D or L forms follow the SMILES beside them. ξ: configuration not given here. *: point of attachment. Hexadecanesulfonyl = CCCCCCCCCCCCCCCCS(=O)(=O)*; ξAbu(βξ-NH2) = CC(N[*:3])C(N[*:1])C(=O)[*:2]; ξAsp(βξ-Me) = CC(C(=O)O)C(N)C(=O)O; ξAbu(3ξ-NH2) = CC(N)C(N)C(=O)O; X1 = CCCCCCCCCCS(=O)(=O)*; Pip = O=C(O)[CH]1CCCCN1; ξD = NC(CC(=O)O)C(=O)O; Dap = NC[CH](N)C(=O)O; ξI = CCC(C)C(N)C(=O)O; ξPip = O=C(O)C1CCCCN1; ξT = CC(O)C(N)C(=O)O; ξDap = NCC(N)C(=O)O; ξP = O=C(O)C1CCCN1

Experiments:
[1] = system: Staphlococcus aureus strain Smith; type: cell-based
Method: MIC values were determined by microliter serial dilution using Staphlococcus aureus strain Smith as the assay organism, which was grown in Mueller-Hinton broth with and without CaCl2.

[2] = system: Staphylococuss aureus; experiment: Resistance to deacylase enzyme: agar well zone diffusion bioassay of deacylase broth samples; type: cell-based; conditions: 9 mm well, 100 μl of sample, incubated 16 hrs. at 28° C.; for Bioassay zone dia. 16 hours: after 16 hours in deacylase broth, 200 rpm, 84° C.; for Bioassay zone dia. Zero time: zero time in deacylase broth
Method: (§1) One milligram of the hexadecylsulfonyl-L-tryptophan derivative of the core antibiotic of laspartomycin (see Section 5.4 for preparation) was added to 2 mL of deacylase broth (prepared as described in Section 5.1) and a zero time sample (0.5 mL) was removed and stored by freezing. The reaction mixture was placed on a shaker at 200 rpm and 84° C. for 16 hours. The zero and 16 hour samples were then studied by HPLC and by agar well zone diffusion assay using Staphylococuss aureus as a test organism. The same conditions were used to compare laspartomycin to enzyme deactivation. […] Under the same conditions Antibiotic A21978C and Aspartocin were completely deactivated within two hours and 16 hours, respectively.

[3] = system: deacylase; experiment: in vitro; type: in vitro ADME, Actinoplanes utahensis NRRL 12052; conditions: Actinoplanes utahensis, cells or culture medium
Method: (§2) The high-producing, natural variant was used in the known fermentation protocol employed (Boeck et al., 1988. J. Antibiot., 41, 1085). A stock culture of Actinoplanes utahensis NRRL 12052 variant, preserved in 20% glycerol at −70° C., was introduced into a 25×150 mm test tube containing 10 mL of a medium comprised of 2.0% sucrose, 2.0% pre-cooked oatmeal, 0.5% distiller's grain, 0.25% yeast, 0.1% K2HPO4, 0.05% KCl, 0.05% MgSO4-7H2O and 0.0002% FeSO4-7H2O in deionized water. After incubation at 30° C. for 72 hrs on a rotary shaker orbiting at 250 rpm the resulting mycelial suspension was transferred into 50 mL of PM3 medium in a 250 mL Erlenmeyer flask. The PM3 medium contained 2.0% sucrose, 1.0% peanut meal, 0.12% K2HPO4, 0.05% KH2PO4 and 0.025% MgSO4-7H2O, in tap water. The flask was incubated at a temperature of 30° C. for a period of between 60 to 90 hrs. The whole broth from this fermentation contained the deacylase enzyme.
as §1

[4] = system: deacylase broth; experiment: in vitro; type: in vitro ADME, Actinoplanes utahensis NRRL 12052
Method: as §2, §1

[5] = system: Staphylococcus aureus; experiment: MIC against Staphylococcus aureus (comparison with aspartocin); type: cell-based
Method: One drop of piperdine was added to about 5.5 mg of the product from Section 5.2.4 dissolved in 2.0 mL of 2:1 mixture of dimethylsulfoxide:methanol. Monitoring by HPLC indicated the reaction was complete after 60 minutes at room temperature. The reaction was quenched by addition of 6.0 mL cooled 0.2 M ammonium phosphate at pH 7.2. The quenched reaction mixture was applied to a 0.5 g resin cartridge (ENVI-Chrom P) and eluted with a stepwise gradient of pH 7.2 phosphate-buffered aqueous acetonitrile. The product was eluted with 25% acetonitrile. Appropriate fractions were pooled and acetonitrile was removed under vacuum at room temperature. The product was desalted by adsorption onto a 0.5 g resin cartridge which was then rinsed with 10% acetonitrile, followed by 50% acetonitrile. The 50% acetonitrile eluate was evaporated to remove acetonitrile and the resulting aqueous solution freeze dried to provide about 1.5 mg of white solid. FAB-MS: m/z 1379 (M+Na)^+ was consistent with the expected structure.

For `CCCCCCCCCCCCCCCCS(=O)(=O)NC(Cc1c[nH]c2ccccc12)C(=O)NC(CC(=O)O)C(=O)NC1CNC(=O)C2CCCN2C(=O)C(C(C)CC)NC(=O)C(C(C)O)NC(=O)CNC(=O)C(CC(=O)O)NC(=O)CNC(=O)C(CC(=O)O)NC(=O)CNC(=O)C2CCCCN2C1=O` (stereo not drawn) [Compound 52] (Hexadecanesulfonyl-WD[Dap][Pip]GDGDGTIP; lactam 3-C; configuration not given here), which “MIC w CaCl2 (4 mm)” value [1] is on record?
Its value is 4000 µg/mL (≈ 2670 µM).

And the “MIC w/o CaCl2” value [1]?
Its value is 8000 to 16000 µg/mL.

With `CCCCCCCCCCCCCCCCS(=O)(=O)NC(Cc1ccccc1)C(=O)NC(CC(=O)O)C(=O)NC1CNC(=O)C2CCCN2C(=O)C(C(C)CC)NC(=O)C(C(C)O)NC(=O)CNC(=O)C(CC(=O)O)NC(=O)CNC(=O)C(CC(=O)O)NC(=O)CNC(=O)C2CCCCN2C1=O` (stereo not drawn) [Compound 56] (Hexadecanesulfonyl-FD[Dap][Pip]GDGDGTIP; lactam 3-C; configuration not given here) as the molecule, how does the “MIC w CaCl2 (4 mm)” value [1] read?
Its value is 4000 µg/mL (≈ 2740 µM).

What about the “MIC w/o CaCl2” value [1] of the same molecule?
Its value is 8000 µg/mL (≈ 5480 µM).

`CCCCCCCCCCS(=O)(=O)NCC(=O)NC(CC(=O)O)C(=O)NC1C(=O)N2CCCCC2C(=O)NC(C(C)C(=O)O)C(=O)NC(CC(=O)O)C(=O)NCC(=O)NC(CC(=O)O)C(=O)NCC(=O)NC(C(C)N)C(=O)NC(C(C)C)C(=O)N2CCCC2C(=O)NC1C` (stereo not drawn) [Compound 58] (X1-GD[ξAbu(βξ-NH2)][Pip][ξAsp(βξ-Me)]DGDG[ξAbu(3ξ-NH2)]VP; lactam 3-C; configuration not given here) was tested. Which “MIC w CaCl2 (4 mm)” value [1] did it give?
The value was 1000 µg/mL (≈ 737 µM).

And the “MIC w/o CaCl2” value [1]?
The value was 32000 µg/mL (≈ 23600 µM).

For `CCCCCCCCCCCCCCCCS(=O)(=O)NC(Cc1ccccc1)C(=O)NC(CC(=O)O)C(=O)NC1C(=O)N2CCCCC2C(=O)NC(C(C)C(=O)O)C(=O)NC(CC(=O)O)C(=O)NCC(=O)NC(CC(=O)O)C(=O)NCC(=O)NC(C(C)N)C(=O)NC(C(C)C)C(=O)N2CCCC2C(=O)NC1C` (stereo not drawn) [Compound 62] (Hexadecanesulfonyl-FD[ξAbu(βξ-NH2)][Pip][ξAsp(βξ-Me)]DGDG[ξAbu(3ξ-NH2)]VP; lactam 3-C; configuration not given here), which “MIC w CaCl2 (4 mm)” value [1] is on record?
Its value is 4000 µg/mL (≈ 2610 µM).

And the “MIC w/o CaCl2” value [1]?
Its value is 4000 µg/mL (≈ 2610 µM).

Which “Bioassay zone dia. 16 hours” value [2] does the source give for `CCCCCCCCCCCCCCCCS(=O)(=O)N[C@@H](Cc1c[nH]c2ccccc12)C(=O)N[C@@H](CC(=O)O)C(=O)NC1CNC(=O)C2CCCN2C(=O)C(C(C)CC)NC(=O)C(C(C)O)NC(=O)CNC(=O)C(CC(=O)O)NC(=O)CNC(=O)C(CC(=O)O)NC(=O)CNC(=O)C2CCCCN2C1=O` (stereo partly drawn) [Hexadecylsulfonyl-L-Tryptophan Derivative of the Core Antibiotic of Laspartomycin] (Hexadecanesulfonyl-WD[ξDap][ξPip]G[ξD]G[ξD]G[ξT][ξI][ξP]; lactam 3-C) here?
Its value is 12.8 mm.

What about the “Bioassay zone dia. Zero time” value [2] of the same molecule?
Its value is 13.7 mm.

And the remaining at 16 h, 0.5 mg/mL [3]?
The remaining at 16 h, 0.5 mg/mL was 53%.

And the “HPLC Peak Area zero time” value [4]?
The value was 100%.

What about the “deactivation / degradation by the enzyme preparation (in words)” value [4] of the same molecule?
Its value is “degraded at a much slower rate”.

With “Decanesulfonylglycyl Aspartocin [decanesulfonylglycyl derivative]” as the molecule, how does the “MIC values compared with aspartocin” value [5] read?
Its value is “essentially the same as those for aspartocin”.

What does the source list for laspartomycin [reference compound]?
Bioassay zone dia. 16 hours [2]: no zone; Bioassay zone dia. Zero time [2]: 15.5 mm; HPLC Peak Area zero time [4]: 100%; deactivation / degradation by the enzyme preparation (in words) [4]: complete deactivation; HPLC Peak Area 16 hours ([4]; Actinoplanes utahensis, cells or culture medium, 16 h, 0.5 mg/mL): 0%; MIC w CaCl2 (4 mm) ([1]; S. aureus strain Smith, Mueller-Hinton broth, with CaCl2 (4 mm)): 2000 µg/mL; MIC w/o CaCl2 ([1]; S. aureus strain Smith, Mueller-Hinton broth, without CaCl2): 16000 µg/mL
